Source: patent US20250320205A1, “STAT6 DEGRADERS” (Gilead Sciences, Inc., priority 2024, published 2025)

How the values were obtained:
[1] = system: Eotaxin-3 (CCL26) release; experiment: Human Whole Blood Eotaxin-3 Assay (IL-4 stimulated); assay type: cell-based; settings: Homo sapiens; geometric mean across assay runs and compound batches; EC50 provided for test compounds with >80% Emax
In short: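 Lithium-heparin human whole blood preincubated 2 h at 37 °C with compounds (4-fold dilutions, triplicate, 0.5% DMSO final). Then stimulated with 400 pM final recombinant human IL-4 for 48 h. Eotaxin-3 in supernatant quantified by MSD immunoassay.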

STAT6 = biological target: T1, STAT6 (Homo sapiens, UniProt P42226); experiment: STAT6 Degrader Assay (HiBiT based, HeLa LgBiT clone 4.14 cells); assay type: cell-based; settings: geometric mean across assay runs and compound batches; DC50 provided for test compounds with >80% Emax; read-out: STAT6 degradation DC50
T1 construct: These cells express endogenous STAT6; host or cells: HeLa LgBiT clone 4.14 (CRISPR knock-in of HiBiT into the endogenous STAT6 gene)
T1 sequence (P42226 1-847): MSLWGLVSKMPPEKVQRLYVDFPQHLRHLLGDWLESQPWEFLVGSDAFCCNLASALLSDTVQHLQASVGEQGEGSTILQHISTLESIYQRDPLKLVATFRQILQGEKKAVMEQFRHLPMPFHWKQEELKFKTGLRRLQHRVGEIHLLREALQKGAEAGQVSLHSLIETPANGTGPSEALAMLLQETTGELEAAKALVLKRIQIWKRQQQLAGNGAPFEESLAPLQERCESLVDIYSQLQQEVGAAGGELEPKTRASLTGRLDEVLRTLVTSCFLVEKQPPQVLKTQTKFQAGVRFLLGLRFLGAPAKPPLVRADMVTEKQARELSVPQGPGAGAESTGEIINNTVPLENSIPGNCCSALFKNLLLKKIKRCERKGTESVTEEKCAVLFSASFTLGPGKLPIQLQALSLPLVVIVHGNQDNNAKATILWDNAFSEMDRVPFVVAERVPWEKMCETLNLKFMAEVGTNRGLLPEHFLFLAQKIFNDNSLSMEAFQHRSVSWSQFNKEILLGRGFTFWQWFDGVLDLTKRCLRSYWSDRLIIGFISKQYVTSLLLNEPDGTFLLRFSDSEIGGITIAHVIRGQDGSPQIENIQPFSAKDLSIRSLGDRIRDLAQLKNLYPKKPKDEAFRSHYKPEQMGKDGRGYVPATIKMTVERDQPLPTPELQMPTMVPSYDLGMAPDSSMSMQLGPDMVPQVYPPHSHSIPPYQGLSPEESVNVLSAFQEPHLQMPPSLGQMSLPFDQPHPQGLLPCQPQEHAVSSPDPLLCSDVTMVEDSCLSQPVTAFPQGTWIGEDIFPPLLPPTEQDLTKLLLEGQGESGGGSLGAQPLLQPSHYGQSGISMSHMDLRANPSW
In short: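 HeLa LgBiT clone 4.14 with CRISPR HiBiT-tagged endogenous STAT6, 5000 cells/well, compound exposure 4-24 h at 37° C. Residual STAT6 read as Nano-Glo luminescence after 0.5 h. 50 μM terfenadine set 100% degradation; DC50 in nM.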

SMILES | EC50 [1] | DC50 (STAT6)
CNc1cc(=O)n(-c2ccnc3c2cc([C@H](C)N2CC=C(c4c(F)cc(C(=O)N5CCC(CN6CCN(c7ccc(N[C@H]8CCC(=O)NC8=O)cc7F)CC6)CC5)cc4F)CC2)n3C)cc1F (single isomer, unassigned) [Example 2g120] | 36.5 nM | 9.4 nM
CNc1ccn(-c2ccnc3c2cc(CN2CCC(c4c(F)cc(C(=O)N5CCC(CN6CCN(c7ccc(N[C@H]8CCC(=O)NC8=O)cc7F)CC6)CC5)cc4F)CC2)n3C)c(=O)c1 (single isomer, unassigned) [Example 2g58] | 196 nM | 10.4 nM
Cc1cc(C(=O)N2CCC(CN3CCN(c4ccc(NC5CCC(=O)NC5=O)cc4F)CC3)CC2)cc(F)c1C1=CCN(Cc2cc3c(-n4ccc5c(c4=O)CCN5)ccnc3n2C)CC1 (centres unmarked) [Example 2g59, 3-((3-fluoro-4-(4-((1-(3-fluoro-5-methyl-4-(1-((1-methyl-4-(4-oxo-1,2,3,4-tetrahydro-5H-pyrrolo[3,2-c]pyridin-5-yl)-1H-pyrrolo [2,3-b]pyridin-2-yl)methyl)-1,2,3,6-tetrahydropyridin-4-yl)benzoyl)piperidin-4-yl)-methyl)piperazin-1-yl)phen-yl)amino)piperidine-2,6-dione] | 20.4 nM | 6.1 nM
CNc1cc(=O)n(-c2ccnc3c2cc([C@H](C)N2CC=C(c4c(C)cc(C(=O)N5CCC(CN6CCN(c7ccc(NC8CCC(=O)NC8=O)cc7F)CC6)CC5)cc4F)CC2)n3C)cc1F (stereo partly drawn) [Example 2g91, 3-((3-fluoro-4-(4-((1-(3-fluoro-4-(1-((S)-1-(4-(5-fluoro-4-(methylamino)-2-oxopyridin-1(2H)-yl)-1-methyl-1H-pyrrolo[2,3-b]pyridin-2-yl)ethyl)-1,2,3,6-tetrahydropyridin-4-yl)-5-methyl-benzoyl)piperidin-4-yl)methyl)piperazin-1-yl)-phenyl)amino)piperidine-2,6-dione] | 9.2 nM | 7 nM
CNc1cc(=O)n(-c2ccnc3c2cc([C@H](C)N2CC=C(c4c(F)cc(C(=O)N5CCC(CN6CCN(c7ccc(NC8CCC(=O)NC8=O)cc7F)CC6)CC5)cc4F)CC2)n3C)cc1F (stereo partly drawn) [Example 2g119, 3-((4-(4-((1-(3,5-difluoro-4-(1-((S)-1-(4-(5-fluoro-4-(methylamino)-2-oxopyridin-1(2H)-yl)-1-methyl-1H-pyr-rolo[2,3-b]pyridin-2-yl)ethyl)-1,2,3,6-tetrahydropyridin-4-yl)benzoyl)piperidin-4-yl)-methyl)piperazin-1-yl)-3-fluorophenyl)amino)piperi-dine-2,6-dione] | 48.2 nM | 14 nM
CNc1ccn(-c2ccnc3c2cc([C@H](C)N2CC=C(c4c(C)cc(C(=O)N5CCC(CN6CCN(c7ccc(NC8CCC(=O)NC8=O)cc7F)C[C@@H]6C)CC5)cc4F)CC2)n3C)c(=O)c1 (stereo partly drawn) [Example 2g97, 3-((3-fluoro-4-((S)-4-((1-(3-fluoro-5-methyl-4-(1-((S)-1-(1-methyl-4-(4-(methyl-amino)-2-oxopyridin-1(2H)-yl)-1H-pyrrolo[2,3-b]pyridin-2-yl)ethyl)-1,2,3,6-tetrahydro-pyridin-4-yl)benzoyl)piperi-din-4-yl)methyl)-3-methyl-piperazin-1-yl)phenyl)amino)-piperidine-2,6-dione] | 36.7 nM | 20.8 nM
CNc1ccn(-c2ccnc3c2cc([C@H](C)N2CC=C(c4c(C)cc(C(=O)N5CCC(CN6CCN(c7ncc(NC8CCC(=O)NC8=O)cc7F)C[C@@H]6C)CC5)cc4F)CC2)n3C)c(=O)c1 (stereo partly drawn) [Example 2g94, 3-((5-fluoro-6-((S)-4-((1-(3-fluoro-5-methyl-4-(1-((S)-1-(1-methyl-4-(4-(methyl-amino)-2-oxopyridin-1(2H)-yl)-1H-pyrrolo[2,3-b]pyridin-2-yl)ethyl)-1,2,3,6-tetrahydro-pyridin-4-yl)benzoyl)piperi-din-4-yl)methyl)-3-methyl-piperazin-1-yl)pyridin-3-yl)-amino)piperidine-2,6-dione] | 23.6 nM | 6.6 nM
CNc1cc(=O)n(-c2ccnc3c2cc(CN2CCC(c4c(F)cc(C(=O)N5CCC(CN6CCN(c7ccc(N[C@@H]8CCC(=O)NC8=O)cc7F)CC6)CC5)cc4F)CC2)n3C)cc1F (single isomer, unassigned) [Example 2g33] | 64.7 nM | 50.8 nM
Cn1c(CN2CCC(c3c(F)cc(C(=O)N4CCC(CN5CCN(c6ccc(NC7CCC(=O)NC7=O)cc6F)CC5)CC4)cc3F)CC2)cc2c(-n3ccc4c(c3=O)CCN4)ccnc21 (centres unmarked) [Example 2g35, 3-((4-(4-((1-(3,5-difluoro-4-(1-((1-methyl-4-(4-oxo-1,2,3,4-tetrahydro-5H-pyrrolo [3,2-c]pyridin-5-yl)-1H-pyrrolo[2,3-b]pyridin-2-yl)-methyl)piperidin-4-yl)benzo-yl)piperidin-4-yl)methyl)-piperazin-1-yl)-3-fluorophen-yl)-amino)piperidine-2,6-dione] | 73.2 nM | 16 nM
CNc1ccn(-c2ccnc3c2cc([C@H](C)N2CC=C(c4c(C)cc(C(=O)N5CCC(CN6CCN(c7ccc(N[C@H]8CCC(=O)NC8=O)c(OC)c7)CC6)CC5)cc4F)CC2)n3C)c(=O)c1 (single isomer, unassigned) [Example 2g126] | 21.2 nM | 4.3 nM

Stronger by EC50 [1], values ahead:

EC50 [1] | DC50 (STAT6) | SMILES
1.1 nM | 0.1 nM | CNc1ccn(-c2ccnc3c2cc([C@H](C)N2CC=C(c4c(C)cc(C(=O)N5CCn6nc(CN7CCC(c8ccc(N[C@@H]9CCC(=O)NC9=O)c(OC)c8)CC7)cc6C5)cc4F)CC2)n3C)c(=O)c1 (single isomer, unassigned) [Example 2g118]
0.9 nM | 1.5 nM | CNc1ccn(-c2ccnc3c2cc([C@H](C)N2CC=C(c4c(C)cc(C(=O)N5CCn6nc(CC7(O)CCN(c8ccc(NC9CCC(=O)NC9=O)cc8F)CC7)cc6C5)cc4F)CC2)n3C)c(=O)c1 (stereo partly drawn) [Example 2g26, 3-((3-fluoro-4-(4-((5-(3-fluoro-5-methyl-4-(1-((S)-1-(1-methyl-4-(4-(methyl-amino)-2-oxopyridin-1(2H)-yl)-1H-pyrrolo[2,3-b]pyridin-2-yl)ethyl)-1,2,3,6-tetrahydro-pyridin-4-yl)benzoyl)-4,5,6,7-tetrahydropyrazolo[1,5-a]pyr-azin-2-yl)methyl)-4-hydroxy-piperidin-1-yl)phenyl)amino)-piperidine-2,6-dione]
0.8 nM | 1.5 nM | CNc1ccn(-c2ccnc3c2cc(CN2CCC(c4c(F)cc(C(=O)N5CCn6nc(CN7CCC(c8ccc(N[C@@H]9CCC(=O)NC9=O)cc8F)CC7)cc6C5)cc4F)CC2)n3C)c(=O)c1 (single isomer, unassigned) [Example 2g102]
0.5 nM | 0.3 nM | CNc1ccn(-c2ccnc3c2cc([C@H](C)N2CC=C(c4c(C)cc(C(=O)N5CCn6nc(CN7CCC(c8ccc(N[C@H]9CCC(=O)NC9=O)c(OC)c8)CC7)cc6C5)cc4F)CC2)n3C)c(=O)c1 (single isomer, unassigned) [Example 2g117]
0.3 nM | 0.4 nM | CNc1ccn(-c2ccnc3c2cc([C@H](C)N2CCC(c4c(F)cc(C(=O)N5CCn6nc(CN7CCC(c8ccc(NC9CCC(=O)NC9=O)cc8F)CC7)cc6C5)cc4F)CC2)n3C)c(=O)c1 (stereo partly drawn) [Example 2g109, 3-((4-(1-((5-(3,5-difluoro-4-(1-((S)-1-(1-methyl-4-(4-(methylamino)-2-oxopyridin-1(2H)-yl)-1H-pyrrolo[2,3-b]pyridin-2-yl)ethyl)piperidin-4-yl)benzoyl)-4,5,6,7-tetra-hydropyrazolo[1,5-a]pyrazin-2-yl)methyl)piperidin-4-yl)-3-fluorophenyl)amino)piperi-dine-2,6-dione]
0.3 nM | 0.8 nM | CNc1ccn(-c2ccnc3c2cc([C@H](C)N2CC=C(c4c(C)cc(C(=O)N5CCn6nc(CN7CCC(c8ccc(NC9CCC(=O)NC9=O)c(OC)c8)CC7)c(Cl)c6C5)cc4F)CC2)n3C)c(=O)c1 (stereo partly drawn) [Example 2g52, 3-((4-(1-((3-chloro-5-(3-fluoro-5-methyl-4-(1-((S)-1-(1-methyl-4-(4-(methyl-amino)-2-oxopyridin-1(2H)-yl)-1H-pyrrolo[2,3-b]pyridin-2-yl)ethyl)-1,2,3,6-tetrahydro-pyridin-4-yl)benzoyl)-4,5,6,7-tetrahydropyrazolo[1,5-a]pyrazin-2-yl)methyl)piperi-din-4-yl)-2-methoxyphenyl)-amino)piperidine-2,6-dione]
